The values below come from patent US20230255962A1, “COMBINATION OF A BTK INHIBITOR AND AN INHIBITOR OF CDK9 TO TREAT CANCER” (ASTRAZENECA AB, priority 2017, published 2023).

The structures appear in SMILES notation.

Assay [1] relates to OCILy10. The experiment in a line: TMRE/DAPI flow cytometry, percentage of apoptotic or dead cells. Format: cell-based. How it is done:
(§1) Two BTK inhibitor-sensitive ABC-DLBCL cell lines (OCILy10 and TMD8) and one insensitive GCB-DLBCL cell line (Karpas422) were treated with either vehicle (DMSO), 100 nM acalabrutinib, or 100 nM AZD4573 for varying lengths of time as either single agent or in combination. Since exposure of BTKi-sensitive cell lines to acalabrutinib for 24 hours was sufficient to induce maximal BH3-only protein levels relative to vehicle-treated cells (FIG. 1), 24-hour pre-treatment of acalabrutinib was chosen for one of the combination sequences. Therefore, cells were treated with: 32 hours of acalabrutinib alone; 8 hours of AZD4573 alone; 8 hours of AZD4573 and acalabrutinib dosed concurrently; or 32 hours of acalabrutinib with AZD4573 added sequentially for the final 8 of those 32 hours (in other words, 24 hours of acalabrutinib pre-treatment).
(§2) The percentage of apoptotic or dead cells was determined by staining the samples with both tetramethylrhodamine, ethyl ester (TMRE) and 4′,6-diamidino-2-phenylindole (DAPI) and then subjecting them to flow cytometry using a BD LSR Fortessa. TMRE is a positively charged dye that accumulates in active mitochondria, and cells undergoing apoptosis experience mitochondrial outter membrane permeabilization (MOMP), which then fails to retain TMRE. […] Following appropriate treatments, cells were stained directly with 200 nM TMRE, incubated for 30 minutes at 37° C., resuspended in flow buffer containing DAPI, and subjected to flow cytometry. Flowjo was used to establish appropriate gates according to viability (DAPI) and MOMP (TMRE), and viable cells were defined as those with low DAPI and high TMRE staining.
A general note: A flow cytometer gives signals particle by particle.

The test system of assay [2] is OCILy10. The experiment in a line: Western blot time course, cleaved caspase-3 (induction of apoptosis). Format: cell-based. The settings on record: OCILy10, 100 nM AZD4573 8-hour time course, alone or following 24-hour pre-treatment with 100 nM acalabrutinib. How it is done: (§3) Two BTK inhibitor-sensitive ABC-DLBCL cell lines (OCILy10 and TMD8) and one insensitive GCB-DLBCL cell line (Karpas422) were treated for an 8-hour time course with either 100 nM AZD4573 alone or following a 24-hour pre-treatment with 100 nM acalabrutinib (since exposure to acalabrutinib for 24 hours was sufficient to induce maximal BH3-only protein levels). Cells were harvested for protein lysates at varying time points (0, 0.5, 1, 2, 4, and 8 hours) post-AZD4573 treatment, normalized for protein concentration using the BCA Protein Assay Kit, and run for western blots according to standard protocols. To ensure expected target engagement was achieved, the blots were probed for the proximal and distal biomarkers for CDK9 (pSer2-RNAPolII and Mcl-1, respectively) and the biomarker for activated BTK (pBTK). To gauge the time to induction of apoptosis, cleaved caspase-3 was also assessed. A loading control (vinculin) was also utilized for normalization.
The BTK inhibitor-sensitive ABC-DLBCL cell line OCILy10 was treated in vitro for an 8-hour time course with either 100 nM AZD4573 alone or following a 24-hour pre-treatment with 30 nM ibrutinib since, similar to acalabrutinib, exposure for 24 hours was sufficient to induce maximal BH3-only protein levels (data not shown). […] To gauge the time to induction of apoptosis, cleaved caspase-3 was also assessed. […]

In the next assay the test system is OCILy10 tumor cells. The experiment in a line: Subcutaneous tumor model, tumor volume. Format: in vivo, C.B.-17 SCID female mice. The conditions noted are these: OCILy10, following 3 cycles of dosing; AZD4573 ip BID 2 on/5 off, ibrutinib 12 mg/kg po QD. How it is done:
AZD4573 was formulated in dimethylacetamide (DMA)/polyethylene glycol 400 (PEG 400)/1% w/v Tween 80 solution 2/30/68 and dosed at 5 mL/kg, intraperitoneally (ip), BID with a 2 hour split on days 1 and 2 followed by a 5 day dose holiday; i.e., a 2 on/5 off schedule. […]
5×10^6 OCILy10 tumor cells or 10×10^6 TMD8 tumor cells were injected subcutaneously in the right flank of C.B.-17 SCID female mice in a volume of 0.1 mL containing 50% matrigel. 10×10^6 Karpas-422 tumor cells were injected subcutaneously in the right flank of SCID beige female mice in a volume of 0.1 mL containing 50% matrigel. Tumor volumes (measured by caliper), animal body weight, and tumor condition were recorded twice weekly for the duration of the studies. The tumor volume was calculated using the formula: length (mm)×width (mm)^2×0.52. For efficacy studies, growth inhibition from the start of treatment was assessed by comparison of the differences in tumor volume between control and treated groups. […]
AZD4573 was formulated in dimethylacetamide (DMA)/polyethylene glycol 400 (PEG 400)/1% w/v Tween 80 solution 2/30/68 and dosed at 5 mL/kg, intraperitoneally (ip), bi-daily (BID) with a 2 hour split on days 1 and 2 with a 5 day dose holiday. […] Tumor volumes (measured by caliper), animal body weight, and tumor condition were recorded twice weekly for the duration of the studies. […]

The subject of assay [3] is TMD8. The experiment in a line: Western blot time course, cleaved caspase-3 (induction of apoptosis). Format: cell-based. The settings on record: TMD8, 100 nM AZD4573 8-hour time course, alone or following 24-hour pre-treatment with 100 nM acalabrutinib. How it is done:
as §3
A general note: Immunoblotting shows a protein as a band on a membrane.

Assay [4] has as its system Karpas422. The experiment in a line: TMRE/DAPI flow cytometry, percentage of apoptotic or dead cells. The format is cell-based. The conditions noted are these: Karpas-422, 100 nM acalabrutinib alone or in combination with 100 nM AZD4573. How it is done:
as §1, §2

In assay [5] the test system is Karpas422. Briefly: Western blot of Bcl2 family / BH3-only protein levels. The conditions noted are these: Karpas422, 100 nM acalabrutinib. The format is cell-based. How it is done: (§4) OCILy10, TMD8, and Karpas422 were treated with either vehicle or 100 nM acalabrutinib for 2 to 72 hours. Protein lysates were harvested at multiple time points in that interval, protein concentration was determined using the BCA Protein Assay Kit, and Western blots were performed according to standard protocol to assess the effects on Bcl2 family protein levels. Each sample was normalized to vinculin as a loading control, and then protein levels of acalabrutinib-treated samples were calculated relative to those of vehicle-treated samples.

Assay [6] deals with TMD8. The description is as above. The format is cell-based. How it is done: as §4
Assay [7] concerns OCILy10. The description is as above. The format is cell-based. How it is done: as §4
The BTK inhibitor-sensitive ABC-DLBCL cell line OCILy10 was treated in vitro for an 8-hour time course with either 100 nM AZD4573 alone or following a 24-hour pre-treatment with 30 nM ibrutinib since, similar to acalabrutinib, exposure for 24 hours was sufficient to induce maximal BH3-only protein levels (data not shown). Cells were harvested for protein lysates at varying time points (0, 0.5, 1, 2, 4, and 8 hours) post-AZD4573 treatment, normalized for protein concentration using the BCA Protein Assay Kit, and run for Western blots according to standard protocols. To ensure expected target engagement was achieved, the blots were probed for the proximal and distal biomarkers for CDK9 (pSer2-RNAPolII and Mcl-1, respectively) and the biomarker for activated BTK (pBTK). […] To gauge the time to induction of apoptosis, cleaved caspase-3 was also assessed. […]

Assay [8] has as its system OCILy10. Briefly: CellTiter-Glo viability readout, 72 hours, GI50. The format is cell-based. The settings on record: OCILy10, 10-point dose-response. How it is done:
(§5) Two ABC-DLBCL (OCILy10 and TMD8) cell lines and one GCB-DLBCL (Karpas422) cell line were treated with either vehicle (DMSO) or a 10-point, ½ log serially dilution of acalabrutinib for 72 hours with a CellTiter-Glo viability readout. The concentration at which 50% growth is inhibited (GI50) was calculated using GraphPad Prism or GeneData.
For orientation: ATP-based viability assays read luminescence as a measure of living cells.

Assay [9] deals with TMD8. The experiment in a line: CellTiter-Glo viability readout, 72 hours, GI50. Format: cell-based. The settings on record: TMD8, 10-point dose-response. How it is done:
as §5

Turning to `CC(=O)N[C@@H]1CCC[C@H](C(=O)Nc2cc(-c3cnn4c3CC(C)(C)C4)c(Cl)cn2)C1` [AZD4573, (1S,3R)-3-acetamido-N-(5-chloro-4-(5,5-dimethyl-5,6-dihydro-4H-pyrrolo[1,2-b]pyrazol-3-yl)pyridin-2-yl)cyclohexanecarboxamide], the cell death in the assay on OCILy10 [1] (OCI-LY-10, 8 hours of 100 nM AZD4573 alone) is about 40%. The “induction of cleaved caspase” value in the assay with OCILy10 [2] and with TMD8 [3] was “mild caspase activation by 8 hours” each time. Also, the “complete response, % of treated animals” value in the assay with OCILy10 tumor cells turned out to be 100%.
As for `CC#CC(=O)N1CCC[C@H]1c1nc(-c2ccc(C(=O)Nc3ccccn3)cc2)c2c(N)nccn12` [acalabrutinib, (S)-4-(8-amino-3-(1-but-2-ynoylpyrrolidin-2-yl)imidazo[1,5-a]pyrazin-1-yl)-N-(pyridin-2-yl)benzamide], in the assay with Karpas422 [4], the “effect on apoptotic/dead cells” value is recorded as “minimal effect”. Further, the cell death in the assay with OCILy10 [1] (OCI-LY-10, 32 hours of 100 nM acalabrutinib alone) is given as about 20%. Besides, the BH3-only protein levels result with Karpas422 [5] was “did not increase”. Further, the “time to maximal BH3-only protein levels following dosing” value with TMD8 [6] (BTK inhibitor-sensitive cells (TMD8), 100 nM) was at most 24 h; in the assay on OCILy10 [7] (BTK inhibitor-sensitive cells (OCILy10), 100 nM), at most 24 h. The “levels of pro-apoptotic BH3-only proteins Bim and Bmf” value in the assay on TMD8 [6] (TMD8, 100 nM acalabrutinib, 24 hours, relative to the insensitive cell line) is recorded as “increased”; in the assay with OCILy10 [7] (OCILy10, 100 nM acalabrutinib, 24 hours, relative to the insensitive cell line) it was “increased”. In addition, the “sensitivity to BTK inhibition (dose-response)” value in the assay with OCILy10 [8] and in the assay with TMD8 [9] was “sensitive” each time.
